The target of data set [1] is T1, STAT1 (Homo sapiens, UniProt P42224).
T1 construct: full-length STAT1 (Uniprot #P42224-1) was expressed in E. coli; His tag (pEXP-NHis vector) (N); made in house; host or cells: E. coli T7 Express
T1 sequence (P42224 1-750): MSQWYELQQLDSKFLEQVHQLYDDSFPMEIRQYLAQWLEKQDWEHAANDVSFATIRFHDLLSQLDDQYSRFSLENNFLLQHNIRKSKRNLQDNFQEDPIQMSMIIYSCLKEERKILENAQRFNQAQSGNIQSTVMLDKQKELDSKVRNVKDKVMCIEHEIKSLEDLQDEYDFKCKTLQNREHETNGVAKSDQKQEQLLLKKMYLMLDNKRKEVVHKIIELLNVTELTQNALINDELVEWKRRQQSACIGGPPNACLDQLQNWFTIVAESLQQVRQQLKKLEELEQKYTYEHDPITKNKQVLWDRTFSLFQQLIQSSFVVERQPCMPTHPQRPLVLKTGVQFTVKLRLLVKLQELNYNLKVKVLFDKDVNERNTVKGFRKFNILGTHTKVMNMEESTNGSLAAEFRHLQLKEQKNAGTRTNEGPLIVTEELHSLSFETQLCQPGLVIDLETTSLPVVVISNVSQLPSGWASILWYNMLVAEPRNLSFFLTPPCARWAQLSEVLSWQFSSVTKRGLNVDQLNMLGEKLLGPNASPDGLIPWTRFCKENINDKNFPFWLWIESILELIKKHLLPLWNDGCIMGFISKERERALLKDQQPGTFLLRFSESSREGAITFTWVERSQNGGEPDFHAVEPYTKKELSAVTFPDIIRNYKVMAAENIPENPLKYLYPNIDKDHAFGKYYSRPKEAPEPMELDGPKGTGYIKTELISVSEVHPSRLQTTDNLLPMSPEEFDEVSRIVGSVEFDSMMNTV
The data set is described as follows: Grating-coupled interferometry (GCI) waveRAPID kinetics, immobilised full-length STAT1. The following applies: for kon at 0.5 µM / kd: analyte 0.5 µM; for kon at 0.5 µM: read-out: ka; for Kd: 20 mM HEPES pH 7.5, 300 mM NaCl, 0.01% Tween-20, 1:1 kinetic model, average of 2–4 technical replicates ± SD, SD. Type of data set: binding. An excerpt:
Understanding the molecular determinants of kinetic rate constants of binding (k a, k d) can aid the design of pharmacological probes with longer target engagement, which is beneficial for drug efficacy and decreased toxicity. , We characterized the binding kinetics of 018-derived macrocycles by using grating-coupled interferometry (GCI). We used waveRAPID, a regeneration-free kinetic binding assay that applies sequential analyte pulses of increasing duration onto a GCI biosensor surface with an immobilized target (Figures A, and S3,S4, Table S2).
(§1) Grating coupled interferometry (GCI)
(§2) GCI experiments were performed on a Creoptix WaveDELTA instrument (Malvern Panalytical). Full-length STAT1 or STAT3 were immobilised on a 4PCH chip (Malvern Panalytical #4PCH-03) to a density 2000-8000 pg/mm2 using EDC/NHS activation followed by amine coupling. Briefly, proteins (500 nM) were applied onto an activated chip in 10 mM MES pH 6.5, 20 mM NaCl, after which the chip surface was passivated with 1M ethanolamine, pH 8.0.
(§3) The kinetic measurements were perfor med using 20 mM HEPES pH 7.5, 300 mM NaCl, 0.01% Tween-20, 0.0005% DMSO as running buffer. Peptides were tested at 0.5 or 10 μM concentration using the waveRAPID kinetics experiment with the tight binder or intermediate binder mode, respectively.[4] Sensorgrams were fitted in the waveControl software (Malven Panalytical) using the 1:1 kinetic model. […]

In data set [2] the target is T1, STAT1. The data set is described as follows: Fluorescence polarization competition assay with fluorescein-labelled pIFNGR1 docking site peptide probe. The following applies: 10 nM fluorescein pIFNGR1 probe, STAT1 1.5 μM, 20 mM Tris pH 8.0, 300 mM NaCl, 0.1% Tween-20, 0.5 mM TCEP, 2.5% DMSO, room temperature; four parameter logistic fit; read-out: IC50 (FP competition, pIFNGR1 probe displacement). Type of data set: binding.

Data set [3] addresses T1, STAT1. Nature of the data set: Isothermal titration calorimetry (ITC) of peptide binding to STAT1. The following applies: average of 2–3 technical replicates, read-out: KD (ITC, summary Fig 2B). The method, then: To determine affinities and thermodynamic profiles of binding, we performed isothermal titration calorimetry (ITC) experiments for peptides 1, 2, 3, 4, 7, and 8 (Figures A,B and S1,S2, Table S1). […] The experiments were repeated in two different buffer systems, TBST (50 mM Tris pH 8.0, 300 mM NaCl, 0.01% Tween-20) and PBST ([…], 150 mM NaCl, 0.01% Tween-20), to account for possible buffer protonation enthalpy artifacts. […]
Isothermal titration calorimetry (ITC)
ITC experiments were performed using a PEAQ ITC instrument (Malvern Panalytical) in either TBST (50 mM Tris pH 8.0, 300 mM NaCl, 0.5 mM TCEP, 0.01% Tween -20) or PBST (10 mM sodium phosphate pH 7.4, 150 mM NaCl, 0.01% Tween -20) as reaction buffers. STAT1 protein was buffer -exchanged into reaction buffer supplemented with 2% DMSO on a NAP -5 deslating column (Cytiv a #17085301) and its concentration was adjusted to 10 or 20 μM.
Peptides were diluted in reaction buffer from DMSO stocks to a matching 2% DMSO concentration. Peptide concentrations were adjusted to approximately 100-200 μM. ITC experiments were performed with STAT1 in the cell and peptides in the syringe at 25°C, with 750 RPM stirring, DP = 4 μcal/sec. 18 injections of 2 μl were performed over a 50 min titration.
Thermogram integra tion and isotherm fitting were performed using the PEAQ ITC analysis software (Malvern Panalytical ). Isotherms were fitted using a 1:1 binding model. Due to challenges in determining peptide concentrations with high accuracy , protein concentrations and stoichiometry (N=1.0) were kept constant during isotherm fitting, whereas peptide concentrations were allowed to vary. Fixing a single reactant concentration during fitting is acceptable given the sufficiently high C -values and isotherm curvature observed in the […]
Offset subtraction was implemented to remove injection heats.
(In general: Isothermal titration calorimetry measures the heat released or taken up as one component is titrated into another.)

Data set [4] deals with T2, STAT3 (Homo sapiens, UniProt P40763).
T2 construct: STAT3: the gene encoding full-length STAT3 was codon optimised for expression in; MBP (pEXP-MBP vector) (cleaved yes); His tag (IMAC capture, removed with the fusion by TEV and reverse IMAC) (cleaved yes); made in house; host or cells: E. coli T7 Express
Nature of the data set: biochemical. Type of data set: binding. The following applies: for Kd: full-length STAT3 on 4PCH chip, average of technical replicates ± SD (Fig 3E), SD, read-out: STAT3 KD (GCI waveRAPID); for kon: read-out: ka; for KD: analyte 10 µM (1, 3, 5) or 0.5 µM (4, 6), n.b. – no binding observed. The method, then:
In such PPIs, the bulk of the binding energy contribution typically stems from backbone interactions, whereas binding specificity is fine-tuned by side-chain contacts. […] We evaluated the binding kinetics of peptides to full-length STAT3 using GCI.
as §1, §2, §3
GCI sensorgrams depicting RAPID kinetics measurements and fitted kinetic models for peptide binding to full-length STAT3 immobilised on a polycarboxylate hydrogel chip (4PCH). Peptides were applied at 0.5 or 10 μM concentration using the medium or tight binders pulse sequence. The peptides that show negligible Rmax values at 10 μM analyte concentration were classified as non-binding.
(1 picture or pasted object on this page, not shown here)

Data set [5] is described as follows: Solubility as required for ITC titration. Type of data set: physicochemical. The following applies: ITC needs approximately 100-200 μM peptide in reaction buffer with 2% DMSO.
For data set [6], the target named is Peptide 4 (bicyclic: head-to-tail plus o-xylyl C15/C26 cross-link) residue 15 to Cys (native residue not given); K26C; both S-alkylated by the o-xylyl bridge. Nature of the data set: isothermal titration calorimetry (ITC). The following applies: pH 8.0; 300 mM NaCl; 50 mM Tris pH 8.0 (TBST).
Data set [7] deals with Peptide 2 (head-to-tail monocyclic 018 11-30) none (wild-type side chains; added beta-Ala-beta-Ala linker). The data set is described as follows: isothermal titration calorimetry (ITC). The following applies: pH 8.0; 300 mM NaCl; 50 mM Tris pH 8.0 (TBST).
The mark [8] stands for this setting: replicate 1 (first listed run, Table S2).
[9] abbreviates: replicate 2 (second listed run, Table S2).
[10] abbreviates: replicate 3 (third listed run, Table S2).
[11] abbreviates: replicate 4 (fourth listed run, Table S2).

Where two headings read alike, the source gives them in different places. *1 amine or outer side, *2 acyl side, *3 side chain or, on linkers, in order; H or OH if unused. Where a SMILES comes first, the peptide text is derived from it. Bridges are numbered along the chain shown (N, C = ends). [ ]: non-standard residue; d: D form. oXylylene = c1ccc(C[*:2])c(C[*:1])c1; βAla = NCCC(=O)O

The IC50 is the point on the concentration scale where inhibition reaches its midpoint. A word on the Kd: it is the concentration at which binding is half-saturated. What is called KD is the concentration at which binding is half-saturated.

T2 sequence (P40763 whole entry, species assumed, the tested form may be a part): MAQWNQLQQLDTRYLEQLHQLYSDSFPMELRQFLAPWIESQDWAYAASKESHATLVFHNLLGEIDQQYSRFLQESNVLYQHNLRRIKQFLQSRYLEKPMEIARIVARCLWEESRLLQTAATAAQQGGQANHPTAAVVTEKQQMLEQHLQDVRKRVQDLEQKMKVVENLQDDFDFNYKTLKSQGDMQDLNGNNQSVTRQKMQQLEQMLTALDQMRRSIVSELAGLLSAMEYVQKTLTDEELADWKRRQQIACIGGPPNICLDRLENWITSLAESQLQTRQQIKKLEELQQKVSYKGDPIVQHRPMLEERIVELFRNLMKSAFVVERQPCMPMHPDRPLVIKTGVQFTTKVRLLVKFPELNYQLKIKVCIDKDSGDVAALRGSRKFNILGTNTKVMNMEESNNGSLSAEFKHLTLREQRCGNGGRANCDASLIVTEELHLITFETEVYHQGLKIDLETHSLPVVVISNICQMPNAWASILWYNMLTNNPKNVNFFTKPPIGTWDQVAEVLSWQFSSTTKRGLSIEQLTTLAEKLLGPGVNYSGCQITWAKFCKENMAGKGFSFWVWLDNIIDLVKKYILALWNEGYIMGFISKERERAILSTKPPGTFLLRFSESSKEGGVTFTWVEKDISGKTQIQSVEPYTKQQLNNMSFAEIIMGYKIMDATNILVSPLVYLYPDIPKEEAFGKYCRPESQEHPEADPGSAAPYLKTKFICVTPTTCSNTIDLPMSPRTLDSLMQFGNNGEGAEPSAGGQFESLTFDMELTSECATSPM

As for `CC[C@H](C)[C@@H]1NC(=O)[C@@H]2CSCc3ccccc3CSC[C@H](NC(=O)CNC(=O)[C@H](CCCCN)NC(=O)[C@H](CC(N)=O)NC(=O)[C@H](CO)NC(=O)CNC(=O)[C@H](CC(=O)O)NC(=O)[C@H](Cc3c[nH]cn3)NC(=O)CNC(=O)[C@H](Cc3c[nH]cn3)NC1=O)C(=O)N[C@@H](CCCCN)C(=O)N[C@@H]([C@@H](C)O)C(=O)N[C@@H](Cc1ccc(O)cc1)C(=O)N[C@@H]([C@@H](C)O)C(=O)NCCC(=O)NCCC(=O)N[C@@H](CCSC)C(=O)N[C@@H](Cc1c[nH]c3ccccc13)C(=O)N[C@@H](CO)C(=O)N[C@@H](C(C)C)C(=O)N2` [Peptide 4] (cyclo(CIHGHDGSNKGCKTYT[βAla][βAla]MWSV); linker 1-12 via oXylylene), the kon at 0.5 µM in data set [1] (setting [8]) was 658000 M⁻¹ s⁻¹; in data set [1] (setting [9]), 594000 M⁻¹ s⁻¹; in data set [1] (setting [10]) it was 277000 M⁻¹ s⁻¹; in data set [1] (setting [11]) it was 865000 M⁻¹ s⁻¹. Moreover, the concentration for half-maximal inhibition (IC50) in data set [2] amounted to 1100 nM. The dissociation constant Kd in data set [3] (PBST pH 7.4 (NaPi, 150 mM NaCl, 0.01% Tween-20)) came out at 14 nM; in data set [3] (TBST pH 8.0) it was 24 nM; in data set [4] it was 248 ± 10.6 nM. In data set [4], this compound displayed a ka of 239000 M⁻¹ s⁻¹. Also, the kon in data set [4] came to 257000 M⁻¹ s⁻¹.

In data set [1], `CC[C@H](C)[C@H](NC(=O)[C@H](Cc1ccccc1)NC(=O)[C@@H](NC(=O)[C@H](CS)NC(=O)[C@H](Cc1c[nH]c2ccccc12)NC(=O)[C@H](CCSC)NC(C)=O)C(C)C)C(=O)N[C@@H](Cc1c[nH]cn1)C(=O)NCC(=O)N[C@@H](Cc1c[nH]cn1)C(=O)N[C@@H](CC(=O)O)C(=O)NCC(=O)N[C@@H](CO)C(=O)N[C@@H](CC(N)=O)C(=O)N[C@@H](CCCCN)C(=O)NCC(=O)N[C@@H](CO)C(=O)N[C@@H](CCCCN)C(=O)N[C@@H](CS)C(=O)N[C@@H](Cc1ccc(O)cc1)C(=O)N[C@H](C(N)=O)[C@@H](C)O` [Peptide 5] gave a Kd of 31.9 ± 4.3 nM. Also, the kd amounted to 0.0123 s⁻¹ in data set [1] (setting [8]) and 0.0132 s⁻¹ in data set [1] (setting [9]). The kon at 0.5 µM amounted to 351000 M⁻¹ s⁻¹ in data set [1] (setting [8]) and 457000 M⁻¹ s⁻¹ in data set [1] (setting [9]). Also, in data set [5], the “solubility (for ITC titration)” value is listed as “insufficient solubility”. Also, the KD result in data set [4] (setting [8]) and in data set [4] (setting [9]) was “n.b” in each case. Further, the “STAT3 binding (GCI), in words” value in data set [4] (full-length STAT3, negligible Rmax at 10 μM classified as non-binding) was “not detected”.

In the case of `CC[C@H](C)[C@@H]1NC(=O)[C@H](Cc2ccccc2)NC(=O)[C@H](C(C)C)NC(=O)[C@@H](NC(=O)[C@H](Cc2c[nH]c3ccccc23)NC(=O)[C@H](CCSC)NC(C)=O)CSCc2ccccc2CSC[C@@H](C(=O)N[C@@H](Cc2ccc(O)cc2)C(=O)N[C@H](C(N)=O)[C@@H](C)O)NC(=O)[C@H](CCCCN)NC(=O)[C@H](CO)NC(=O)CNC(=O)[C@H](CCCCN)NC(=O)[C@H](CC(N)=O)NC(=O)[C@H](CO)NC(=O)CNC(=O)[C@H](CC(=O)O)NC(=O)[C@H](Cc2c[nH]cn2)NC(=O)CNC(=O)[C@H](Cc2c[nH]cn2)NC1=O` [Peptide 6], the Kd in data set [1] came to 1.3 ± 1.1 nM; in data set [4] it was 196 ± 12 nM. Further, the kon at 0.5 µM in data set [1] (setting [8]) was determined as 377000 M⁻¹ s⁻¹; in data set [1] (setting [9]), 304000 M⁻¹ s⁻¹; in data set [1] (setting [10]), 186000 M⁻¹ s⁻¹; in data set [1] (setting [11]), 384000 M⁻¹ s⁻¹. Moreover, the “solubility (for ITC titration)” value in data set [5] is “insufficient solubility”. This compound also gave a ka in data set [4] of 280000 M⁻¹ s⁻¹. Further, the kon in data set [4] is 252000 M⁻¹ s⁻¹.

“STAT1 (signal transducer and activator of transcription 1), unphosphorylated not stated for the ITC sample”: the KD in data set [6] is given as 24 ± 15 nM; in data set [7], 330 ± 20 nM.
